Converted amounts (≈) assume the structure as drawn. Like-named read-outs stand apart in the source and are kept apart here.
Key:
physchem = settings: 22 °C
Excerpt: Cystine, a sulfur-sulfur dimer of cysteine, can form in the presence of oxygen (air) in cysteine solutions. Cystine, especially the free base, is several orders of magnitude less soluble in aqueous solutions than cysteine, and the solubility of cystine decreases as the pH increases.

[1] = cited from earlier work
[2] = aqueous with cosolvent or surfactant or cyclodextrin

solubility (physchem; water) [µg/mL] | solubility (physchem; [2]) [µg/mL] | SMILES | solubility ([1]; pH 1.0) | solubility ([1]; pH 1.4)
18700 (≈ 155000 µM) | – | N[C@@H](CS)C(=O)O [Cysteine free base, Cysteine] | – | –
140 (≈ 583 µM) | 590 (≈ 2460 µM) | N[C@@H](CSSC[C@H](N)C(=O)O)C(=O)O [Cystine free Base, Cystine] | approximately 4 mg/mL | approximately 1 mg/ml
1040 | 9930 | Cl.Cl.N[C@@H](CSSC[C@H](N)C(=O)O)C(=O)O [Cystine Dihydrochloride] | – | –
